HELM strings list units from the 5' end as sugar, base in round brackets, then linkage (d deoxyribose, r ribose, m 2'-O-methyl, p phosphodiester). Strings are as the collection lists them; they lack the last nucleoside at the 3' end of the tested compound. [moe] = 2'-O-(2-methoxyethyl) (MOE); [sp] = phosphorothioate linkage; [m5C] = 5-methylcytosine
Biological target: ATXN2
Experiment: mouse, dose not given
Conditions: ASO

Substance | 3 h FOB score
RNA1{[moe](A)[sp].[moe]([m5C])p.[moe](T)p.[moe](G)p.[moe](T)p.d(T)[sp].d(T)[sp].d([m5C])[sp].d(G)[sp].d(A)[sp].d([m5C])[sp].d([m5C])[sp].d(T)[sp].d([m5C])[sp].d(T)[sp].[moe](G)p.[moe](A)p.[moe](A)[sp].[moe](A)}$$$$ (last 3' nucleoside missing) | 4 score 0-7
RNA1{[moe](A)[sp].[moe]([m5C])p.[moe](T)p.[moe](T)p.[moe](G)p.d(T)[sp].d(A)[sp].d([m5C])[sp].d(T)[sp].d(T)[sp].d([m5C])[sp].d(A)[sp].d([m5C])[sp].d(A)[sp].d(T)[sp].[moe](T)p.[moe](T)p.[moe](G)[sp].[moe](G)}$$$$ (last 3' nucleoside missing) | 1 score 0-7
RNA1{[moe](A)[sp].[moe]([m5C])p.[moe](T)p.[moe](T)p.[moe](T)[sp].d(T)[sp].d([m5C])[sp].d(T)[sp].d([m5C])[sp].d(A)[sp].d(T)[sp].d(G)[sp].d(T)[sp].[moe](G)p.[moe]([m5C])p.[moe](G)[sp].[moe](G)}$$$$ (last 3' nucleoside missing) | 3.25 score 0-7
RNA1{[moe](A)[sp].[moe]([m5C])p.[moe](T)p.[moe](T)p.[moe](T)p.[moe](T)p.d([m5C])[sp].d(T)[sp].d([m5C])[sp].d(A)[sp].d(T)[sp].d(G)[sp].d(T)[sp].d(G)[sp].d([m5C])[sp].d(G)[sp].[moe](G)p.[moe]([m5C])[sp].[moe](A)}$$$$ (last 3' nucleoside missing) | 6.5 score 0-7
RNA1{[moe](A)[sp].[moe]([m5C])p.[moe](T)p.[moe](T)p.[moe](T)p.d(T)[sp].d([m5C])[sp].d(T)[sp].d([m5C])[sp].d(A)[sp].d(T)[sp].d(G)[sp].d(T)[sp].d(G)[sp].d([m5C])[sp].[moe](G)p.[moe](G)p.[moe]([m5C])[sp].[moe](A)}$$$$ (last 3' nucleoside missing) | 5 score 0-7
RNA1{[moe](A)[sp].[moe]([m5C])p.[moe](T)p.[moe](T)p.[moe]([m5C])[sp].d(T)[sp].d([m5C])[sp].d(T)[sp].d(A)[sp].d(T)[sp].d(T)[sp].d(T)[sp].d([m5C])[sp].[moe](T)p.[moe](T)p.[moe](T)[sp].[moe](G)}$$$$ (last 3' nucleoside missing) | 2 score 0-7
RNA1{[moe](A)[sp].[moe]([m5C])p.[moe](T)p.[moe](T)p.[moe]([m5C])p.[moe](T)p.d([m5C])[sp].d(T)[sp].d(A)[sp].d(T)[sp].d(T)[sp].d(T)[sp].d([m5C])[sp].d(T)[sp].d(T)[sp].d(T)[sp].[moe](G)p.[moe](T)[sp].[moe]([m5C])}$$$$ (last 3' nucleoside missing) | 1.25 score 0-7
RNA1{[moe](A)[sp].[moe]([m5C])p.[moe](T)p.[moe](T)p.[moe]([m5C])p.d(A)[sp].d([m5C])[sp].d(A)[sp].d(T)[sp].d(T)[sp].d(T)[sp].d(G)[sp].d(G)[sp].d(A)[sp].d(G)[sp].[moe]([m5C])p.[moe]([m5C])p.[moe]([m5C])[sp].[moe](T)}$$$$ (last 3' nucleoside missing) | 5.75 score 0-7
RNA1{[moe](A)[sp].[moe]([m5C])p.[moe](T)p.[moe](T)p.[moe]([m5C])p.d(T)[sp].d([m5C])[sp].d(T)[sp].d(A)[sp].d(T)[sp].d(T)[sp].d(T)[sp].d([m5C])[sp].d(T)[sp].d(T)[sp].[moe](T)p.[moe](G)p.[moe](T)[sp].[moe]([m5C])}$$$$ (last 3' nucleoside missing) | 3 score 0-7
RNA1{[moe](A)[sp].[moe]([m5C])p.[moe](T)p.[moe](T)p.d(T)[sp].d(T)[sp].d([m5C])[sp].d(T)[sp].d([m5C])[sp].d(A)[sp].d(T)[sp].d(G)[sp].d(T)[sp].d(G)[sp].[moe]([m5C])p.[moe](G)p.[moe](G)p.[moe]([m5C])[sp].[moe](A)}$$$$ (last 3' nucleoside missing) | 2.5 score 0-7
RNA1{[moe](A)[sp].[moe]([m5C])p.[moe](T)p.[moe](T)p.d([m5C])[sp].d(T)[sp].d([m5C])[sp].d(T)[sp].d(A)[sp].d(T)[sp].d(T)[sp].d(T)[sp].d([m5C])[sp].d(T)[sp].[moe](T)p.[moe](T)p.[moe](G)p.[moe](T)[sp].[moe]([m5C])}$$$$ (last 3' nucleoside missing) | 0 score 0-7
RNA1{[moe](A)[sp].[moe]([m5C])p.[moe](T)p.[moe]([m5C])p.[moe](T)p.d([m5C])[sp].d([m5C])[sp].d(A)[sp].d(T)[sp].d(T)[sp].d(A)[sp].d(T)[sp].d(T)[sp].d(T)[sp].d([m5C])[sp].[moe](T)p.[moe](T)p.[moe]([m5C])[sp].[moe](A)}$$$$ (last 3' nucleoside missing) | 1 score 0-7
RNA1{[moe](G)[sp].[moe](A)p.[moe](A)p.[moe](G)p.[moe](T)p.d([m5C])[sp].d(T)[sp].d(T)[sp].d(G)[sp].d(T)[sp].d(T)[sp].d([m5C])[sp].d(A)[sp].d(G)[sp].d(T)[sp].[moe](G)p.[moe](T)p.[moe]([m5C])[sp].[moe]([m5C])}$$$$ (last 3' nucleoside missing) | 3.75 score 0-7
RNA1{[moe](G)[sp].[moe](A)p.[moe](A)p.[moe](G)p.[moe]([m5C])p.d(A)[sp].d(G)[sp].d(A)[sp].d(T)[sp].d(T)[sp].d(T)[sp].d(T)[sp].d(T)[sp].d(T)[sp].d(T)[sp].[moe](T)p.[moe](T)p.[moe](T)[sp].[moe](T)}$$$$ (last 3' nucleoside missing) | 3 score 0-7
RNA1{[moe](G)[sp].[moe](A)p.[moe](A)p.[moe](T)p.[moe]([m5C])p.d(T)[sp].d(T)[sp].d(A)[sp].d(T)[sp].d(T)[sp].d(A)[sp].d(A)[sp].d(G)[sp].d([m5C])[sp].d(A)[sp].[moe](A)p.[moe](G)p.[moe](T)[sp].[moe]([m5C])}$$$$ (last 3' nucleoside missing) | 2.5 score 0-7
RNA1{[moe](G)[sp].[moe](A)p.[moe](A)p.[moe]([m5C])p.[moe](A)p.d([m5C])[sp].d([m5C])[sp].d(A)[sp].d(T)[sp].d(G)[sp].d(A)[sp].d([m5C])[sp].d(T)[sp].d(G)[sp].d(A)[sp].[moe](T)p.[moe]([m5C])p.[moe]([m5C])[sp].[moe]([m5C])}$$$$ (last 3' nucleoside missing) | 4 score 0-7
RNA1{[moe](G)[sp].[moe](A)p.[moe](A)p.[moe]([m5C])p.[moe](T)p.d(G)[sp].d(G)[sp].d(A)[sp].d(T)[sp].d(T)[sp].d([m5C])[sp].d(T)[sp].d(G)[sp].d(T)[sp].d(A)[sp].[moe]([m5C])p.[moe](T)p.[moe](T)[sp].[moe](T)}$$$$ (last 3' nucleoside missing) | 4 score 0-7
RNA1{[moe](G)[sp].[moe](A)p.[moe](A)p.[moe]([m5C])p.[moe]([m5C])p.d(A)[sp].d(G)[sp].d(A)[sp].d(A)[sp].d(T)[sp].d(T)[sp].d([m5C])[sp].d(G)[sp].d(G)[sp].d(G)[sp].[moe](T)p.[moe](T)p.[moe](G)[sp].[moe](A)}$$$$ (last 3' nucleoside missing) | 3.75 score 0-7
RNA1{[moe](G)[sp].[moe](A)p.[moe](G)p.[moe](T)p.[moe](T)p.d(T)[sp].d(T)[sp].d(T)[sp].d(G)[sp].d([m5C])[sp].d([m5C])[sp].d(T)[sp].d(T)[sp].d([m5C])[sp].d([m5C])[sp].[moe](A)p.[moe](T)p.[moe](T)[sp].[moe](T)}$$$$ (last 3' nucleoside missing) | 1 score 0-7
RNA1{[moe](G)[sp].[moe](A)p.[moe](G)p.[moe](T)p.[moe](T)p.d([m5C])[sp].d(A)[sp].d([m5C])[sp].d([m5C])[sp].d(T)[sp].d(G)[sp].d([m5C])[sp].d(A)[sp].d(T)[sp].d([m5C])[sp].[moe]([m5C])p.[moe]([m5C])p.[moe](A)[sp].[moe](G)}$$$$ (last 3' nucleoside missing) | 6 score 0-7
RNA1{[moe](G)[sp].[moe](A)p.[moe](T)p.[moe](A)p.[moe](T)p.d(G)[sp].d(T)[sp].d(T)[sp].d(A)[sp].d([m5C])[sp].d(A)[sp].d(A)[sp].d(A)[sp].d(T)[sp].d(T)[sp].[moe]([m5C])p.[moe](T)p.[moe]([m5C])[sp].[moe](T)}$$$$ (last 3' nucleoside missing) | 0 score 0-7
RNA1{[moe](G)[sp].[moe](A)p.[moe](T)p.[moe](G)p.[moe](T)p.d(T)[sp].d(T)[sp].d([m5C])[sp].d(A)[sp].d(T)[sp].d(T)[sp].d(G)[sp].d(G)[sp].d(G)[sp].d(T)[sp].[moe](T)p.[moe](T)p.[moe](A)[sp].[moe](A)}$$$$ (last 3' nucleoside missing) | 6.25 score 0-7
RNA1{[moe](G)[sp].[moe](A)p.[moe](T)p.[moe](T)p.[moe](A)p.d(A)[sp].d([m5C])[sp].d(G)[sp].d(G)[sp].d(T)[sp].d(T)[sp].d(G)[sp].d([m5C])[sp].d(T)[sp].d(T)[sp].[moe](A)p.[moe](G)p.[moe](G)[sp].[moe](G)}$$$$ (last 3' nucleoside missing) | 6.5 score 0-7
RNA1{[moe](G)[sp].[moe](A)p.[moe](T)p.[moe](T)p.[moe]([m5C])[sp].d(T)[sp].d(G)[sp].d(T)[sp].d(A)[sp].d([m5C])[sp].d(T)[sp].d(T)[sp].d(T)[sp].[moe](T)p.[moe]([m5C])p.[moe](T)[sp].[moe]([m5C])}$$$$ (last 3' nucleoside missing) | 1 score 0-7
RNA1{[moe](G)[sp].[moe](A)p.[moe](T)p.[moe](T)p.[moe]([m5C])p.d(T)[sp].d(G)[sp].d(T)[sp].d(A)[sp].d([m5C])[sp].d(T)[sp].d(T)[sp].d(T)[sp].d(T)[sp].d([m5C])[sp].[moe](T)p.[moe]([m5C])p.[moe](A)[sp].[moe](T)}$$$$ (last 3' nucleoside missing) | 4.5 score 0-7
RNA1{[moe](G)[sp].[moe](A)p.[moe]([m5C])p.[moe](A)p.[moe](T)p.d(G)[sp].d([m5C])[sp].d(G)[sp].d(G)[sp].d(T)[sp].d(T)[sp].d(T)[sp].d([m5C])[sp].d(A)[sp].d([m5C])[sp].[moe]([m5C])p.[moe](A)p.[moe](T)[sp].[moe](T)}$$$$ (last 3' nucleoside missing) | 4 score 0-7
